Reference: paper PMC6362038, “Secondary structures and cell-penetrating abilities of arginine-rich peptide foldamers” (Scientific Reports, 2019)
Numbered stars: 1 amine (or outer) side, 2 acyl side, 3 side chain; on linkers, the order of the positions; unused ones are H or OH. Square brackets hold non-standard residues; d marks the D form. Peptide text beside a SMILES is read from it. * marks the point of attachment. 5FAM = O=C1OC2(c3ccc(O)cc3Oc3cc(O)ccc32)c2ccc(C(=O)*)cc21; X1 = CO[C@H]1CC(N[*:1])(C(=O)[*:2])C[C@@H]1OC; αMeL = CC(C)C[C@](C)(N)C(=O)O; Ac5c = NC1(C(=O)O)CCCC1

Tests used:
[1] = Circular dichroism, R value of secondary structure; assay type: physicochemical; conditions: CD, peptide 24 µM
Experimental: The conformations of peptides were analyzed by circular dichroism (CD) in pH 7.3 4-(2-hydroxyethyl)-1-piperazineethanesulfonic acid (HEPES) buffer (Fig. 3a), 40% 2,2,2-trifluoroethanol (TFE)/pH 7.3 HEPES buffer (Fig. 3b), and 75% TFE/pH 7.3 HEPES buffer (Fig. 3c). Negative maxima at 205–209 nm (π → π*) and 222–225 nm (n → π*) were diagnostic of a right-handed (P) helical structure[31]–[33]. The ratio of R (θπ → π*/θn → π*) has been used as a parameter to distinguish an α-helical structure from a 3_10-helical structure (i.e., R ≈ 1: α-helix; R < 0.4: 3_10-helix) (Table S1)[34],[35]. Helical content (helicity) of peptides was estimated from the intensity of θn → π* values. A negative maximum at 195–200 nm (π → π*) and a weak positive maximum at 217 nm (n → π*) were diagnostic of a random coil structure. […] By adding TFE to HEPES buffer, (αMe)Leu peptide formed a complete right-handed (P) helical structure in a mixture of α- and 3_10-helices (R = 0.57 and 0.56 in Figs 3b and […], respectively). The dominant structures of Ac5c and Leu peptides changed by increased the rate of TFE to eventually be α-/3_10-helices (R = 0.52) and 3_10-helix (R = 0.30), respectively (Fig. 3c). […] Cbz-[L-Leu-L-Leu-(S,S)-Ac5c^dOM]3-OMe was reported to form a right-handed (P) helical structure in 50% TFE/H2O[37]. L-Leu might contribute to stabilization of the peptide helical secondary structure as well as (S,S)-Ac5c^dOM. Destabilization of the peptide helical secondary structure by L-Arg might be stronger than stabilization of it by (S,S)-Ac5c^dOM. Taken together with the results of CD spectra (Fig. 3), in which helicity of peptides was estimated from the intensity of θn → π* values, stability in the helicity of the peptides in the current study was as follows: (αMe)Leupeptide>Ac5cpeptide≈Leupeptide>Ac5c^dOMpeptide≈Argpeptide.
Figure 3 CD spectra of peptides in (a) HEPES buffer, (b) 40% TFE/HEPES buffer, and (c) 75% TFE/HEPES buffer. Peptide concentration: 24 µM.
Optical rotation [α]^rtD was measured using a Jasco DIP-370 polarimeter (JASCO, Tokyo, Japan) using a 0.5 dm cell. Infrared (IR) spectra were recorded using a Shimadzu IR Affinity-1 spectrometer (Shimadzu Corporation, Kyoto, Japan) for conventional measurement (KBr). CD spectra were recorded using a Jasco J-720W spectropolarimeter (JASCO) with a 1.0 mm path length cell. ^1H NMR (400 MHz) and ^13C NMR (100 MHz) spectra were determined using a JEOL AL 400 spectrometer (JEOL Ltd, Tokyo, Japan). Fast atom bombardment (FAB)-MS was measured using a JEOL JMS-700N (JEOL). MALDI-TOF-MS spectra were recorded using a Bruker Ultrax spectrometer (Bruker Daltonics, Fermont, CA). Piperidine was purchased from Tokyo Chemical Industry Co., Ltd. (Tokyo, Japan). Fmoc-L-Arg(Pbf)-OH, Fmoc-Gly-OH, Fmoc-L-Leu-OH, and CLEAR-Amide resin were purchased from the Peptide Institute., Inc. (Osaka, Japan). Fmoc-(S)-(αMe)Leu-OH was obtained from Nagase & Co., Ltd. (Kyoto, Japan). Fmoc-Ac5c-OH was purchased from Watanabe Chemical Industries, Ltd. (Hiroshima, Japan). HATU, HBTU, HOAt, and HOBt were from AAPPTec (Louisville, KY). COMU was from Novabiochem (Tokyo, Japan). CF and Dulbecco’s modified Eagle’s medium (DMEM) were obtained from Sigma-Aldrich Co. (St. Louis, MO). diisopropylethylamine (DIPEA) and heparin were purchased from Wako Pure Chemicals Co., Inc. (Osaka, Japan). Diethyl ether was from Kanto Chemical Co., Inc. (Tokyo, Japan). Trifluoroacetic acid (TFA) was obtained from Nacalai Tesque, Co., Inc. (Kyoto, Japan). Hoechst 33342 and a Cell counting kit-8 were purchased from Dojindo Laboratories (Kumamoto, Japan). LysoTracker Red was from Molecular Probes (Eugene, OR).
Table S1. R values (qπ → π*/qn → π*) of synthetic peptides.
R value (qπ → π*/qn → π* )
HEPES 40% TFE/HEPES 75% TFE/HEPES

[2] = test system: CHO-K1 cells; test: Inhibition of cellular uptake by specific endocytosis inhibitors; assay type: cell-based; conditions: 30 min pre-incubation 37 °C, 1 µM peptide, 1 h, flow cytometry, n = 3; for uptake in presence of nystatin (caveolae-mediated endocytosis inhibitor): CHO-K1, nystatin 25 µg/mL; for uptake in presence of sucrose (clathrin-mediated endocytosis inhibitor): CHO-K1, sucrose 0.4 M
Experimental: To obtain further information on the cellular uptake mechanisms of peptides, inhibitory experiments were carried out using specific endocytosis inhibitors (amilorilde: macropinocytosis; sucrose: clathrin-mediated endocytosis; nystatin: caveolae-mediated endocytosis) against CHO-K1 cells (Fig. S5). […] (αMe)Leu peptide appeared to internalize into CHO-K1 cells via all three routes, while Ac5c peptide appeared to internalize mainly via clathrin-mediated endocytosis and caveolae-mediated endocytosis.
CHO-K1 cells were seeded on 24-well culture plates (100,000 cells/well) and incubated in 400 µL of DMEM containing 10% FBS. The medium was then replaced with fresh medium containing 10% FBS in the absence (untreated) or presence of amiloride (5 mM), sucrose (0.4 M), or nystatin (25 µg/mL), cells were pre-incubated at 37 °C for 30 min. A peptide solution was added to each well at a concentration of 1 µM. The medium was removed after 1-h incubation and subsequent operations were conducted in the same manner as cellular uptake experiments.
A c5cAc5c (aMe L e uMe)Leu untreated ami loride su cro se n ystatin
Figure S5. Effects of inhibitors on internalization of peptides against CHO-K1 cells. Error bars represent the standard deviation, n = 3. *P < 0.05, **P < 0.01.

[3] = pH 7.3 HEPES buffer, R ≈ 1 α-helix, R < 0.4 3_10-helix

SMILES: CC(C)C[C@](C)(NC(=O)[C@H](CCCNC(=N)N)NC(=O)[C@H](CCCNC(=N)N)NC(=O)[C@](C)(CC(C)C)NC(=O)[C@H](CCCNC(=N)N)NC(=O)[C@H](CCCNC(=N)N)NC(=O)[C@](C)(CC(C)C)NC(=O)[C@H](CCCNC(=N)N)NC(=O)[C@H](CCCNC(=N)N)NC(=O)CNC(=O)c1ccc2c(c1)C(=O)OC21c2ccc(O)cc2Oc2cc(O)ccc21)C(N)=O [(αMe)Leu peptide] (5FAM-GRR[αMeL]RR[αMeL]RR[αMeL]-NH2)
- R value (θπ → π*/θn → π*) ([1]; 40% TFE/pH 7.3 HEPES buffer): 0.57
- R value (θπ → π*/θn → π*) ([1]; 75% TFE/pH 7.3 HEPES buffer): 0.56
- R value (θπ → π*/θn → π*) [1, 3]: 0.45
- uptake in presence of nystatin (caveolae-mediated endocytosis inhibitor) [2]: significantly decreased
- uptake in presence of sucrose (clathrin-mediated endocytosis inhibitor) [2]: significantly decreased

SMILES: CO[C@H]1CC(NC(=O)[C@H](CCCNC(=N)N)NC(=O)[C@H](CCCNC(=N)N)NC(=O)C2(NC(=O)[C@H](CCCNC(=N)N)NC(=O)[C@H](CCCNC(=N)N)NC(=O)C3(NC(=O)[C@H](CCCNC(=N)N)NC(=O)[C@H](CCCNC(=N)N)NC(=O)CNC(=O)c4ccc5c(c4)C(=O)OC54c5ccc(O)cc5Oc5cc(O)ccc54)C[C@H](OC)[C@@H](OC)C3)C[C@H](OC)[C@@H](OC)C2)(C(N)=O)C[C@@H]1OC [Ac5c^dOM peptide] (5FAM-GRR[X1]RR[X1]RR[X1]-NH2)
- R value (θπ → π*/θn → π*) ([1]; 40% TFE/pH 7.3 HEPES buffer): No significant maxima
- R value (θπ → π*/θn → π*) ([1]; 75% TFE/pH 7.3 HEPES buffer): No significant maxima
- R value (θπ → π*/θn → π*) [1, 3]: No significant maxima

SMILES: N=C(N)NCCC[C@H](NC(=O)CNC(=O)c1ccc2c(c1)C(=O)OC21c2ccc(O)cc2Oc2cc(O)ccc21)C(=O)N[C@@H](CCCNC(=N)N)C(=O)NC1(C(=O)N[C@@H](CCCNC(=N)N)C(=O)N[C@@H](CCCNC(=N)N)C(=O)NC2(C(=O)N[C@@H](CCCNC(=N)N)C(=O)N[C@@H](CCCNC(=N)N)C(=O)NC3(C(N)=O)CCCC3)CCCC2)CCCC1 [Ac5c peptide] (5FAM-GRR[Ac5c]RR[Ac5c]RR[Ac5c]-NH2)
- R value (θπ → π*/θn → π*) ([1]; 40% TFE/pH 7.3 HEPES buffer): 0.61
- R value (θπ → π*/θn → π*) ([1]; 75% TFE/pH 7.3 HEPES buffer): 0.52
- R value (θπ → π*/θn → π*) [1, 3]: No significant maxima
- uptake in presence of amiloride (macropinocytosis inhibitor) ([2]; CHO-K1, amiloride 5 mM): significantly decreased
- uptake in presence of nystatin (caveolae-mediated endocytosis inhibitor) [2]: significantly decreased
- uptake in presence of sucrose (clathrin-mediated endocytosis inhibitor) [2]: significantly decreased
